Test results taken from patent US8871681B2, “Herbicidal compositions comprising 4-amino-3-chloro-5-fluoro-6-(4-chloro-2-fluoro-3-methoxyphenyl) pyridine-2-carboxylic acid or a derivative thereof and certain sulfonylureas” (Dow AgroSciences LLC, priority 2012, dated 2014).

How the values were obtained:
[1] = system: ISCRU (Ischaemum rugosum, saramollagrass); test: Postemergence foliar-applied weed control, direct seeded rice, greenhouse (Example I); assay type: in vivo, Ischaemum rugosum Salisb.
From the text: Seeds or nutlets of the desired test plant species were planted in a soil matrix prepared by mixing a loam or sandy loam soil (e.g., 28.6 percent silt, 18.8 percent clay, and 52.6 percent sand, with a pH of about 5.8 and an organic matter content of about 1.8 percent) and calcareous grit in an 80 to 20 ratio. The soil matrix was contained in plastic pots with a volume of 1 quart and a surface area of 83.6 square centimeters (cm^2). When required to ensure good germination and healthy plants, a fungicide treatment and/or other chemical or physical treatment was applied. The plants were grown for 8-22 days in a greenhouse with an approximate 14 h photoperiod which was maintained at about 29° C. during the day and 26° C. during the night. Nutrients (Peters Excel® 15-5-15 5-Ca 2-Mg and iron chelate) were applied in the irrigation solution as needed and water was added on a regular basis. Supplemental lighting was provided with overhead metal halide 1000-Watt lamps as necessary. The plants were employed for testing when they reached the first through fourth true leaf stage.
Treatments consisted of the acid or esters of 4-amino-3-chloro-5-fluoro-6-(4-chloro-2-fluoro-3-methoxy-phenyl)pyridine-2-carboxylic acid (Compound A), each formulated as an SC, and various herbicidal components alone and in combination. Forms of compound A were applied on an acid equivalent basis.
Other herbicidal components were applied on an active ingredient basis and included acetolactate synthase (ALS)-inhibiting herbicides (sulfonylurea chemical class) azimsulfuron formulated as Gulliver®, bensulfuron-methyl formulated as Londax® 60DF, cyclosulfamuron (technical material), ethoxysulfuron formulated as Sunrice® 15 WDG, flazasulfuron formulated as Katana®, flucetosulfuron formulated as Sukedachi® 1KG G, foramsulfuron formulated as Option®, imazosulfuron formulated as Brazzos® WG, iodosulfuron-methyl-sodium formulated as Hussar®, metsulfuron-methyl formulated as Lorate®, nicosulfuron formulated as Accent®, orthosulfamuron formulated as Strada® WG, primisulfuron-methyl (technical material), propyrisulfuron formulated as Zeta One®, rimsulfuron formulated as Matrix® WG, sulfometuron-methyl formulated as Oust®, and trifloxysulfuron-sodium formulated as Monument® 75WG.
Treatment requirements were calculated based upon the rates being tested, the concentration of active ingredient or acid equivalent in the formulation, and a 12 mL application volume at a rate of 187 L/ha.
For treatments comprised of formulated compounds, measured amounts of compounds were placed individually in 25 mL glass vials and diluted in a volume of 1.25% (v/v) Agri-Dex® crop oil concentrated to obtain 12× stock solutions. […] Application solutions were prepared by adding an appropriate amount of each stock solution (e.g., 1 mL) and diluted to the appropriate final concentrations with the addition of 10 mL of an aqueous mixture of 1.25% (v/v) crop oil concentrate so that the final spray solutions contained 1.25+/−0.05% (v/v) Agrcrop oil concentrate.
For treatments comprised of formulated and technical compounds, weighed amounts of the technical materials were placed individually in 25 mL glass vials and dissolved in a volume of 97:3 v/v acetone/DMSO to obtain 12× stock solutions, and measured amounts of the formulated compounds were placed individually in 25 mL glass vials and diluted in a volume of 1.25% (v/v) crop oil concentrate to obtain 12× stock solutions. […] Application solutions were prepared by adding an appropriate amount of each stock solution (e.g., 1 mL) and diluted to the appropriate final concentrations with the addition of an appropriate amount of an aqueous mixture of 1.5% (v/v) crop oil concentrate so that the final spray solutions contained 1.25% (v/v) crop oil concentrate. […]

[2] = system: DIGSA (Digitaria sanguinalis, large crabgrass); test: as above; assay type: in vivo, Digitaria sanguinalis (L.) Scop.; settings: for Visual Weed Control (%) - 21 DAA DIGSA Obs: Table 27, foliar-applied
Procedure, shortened: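 Greenhouse-grown plants in loam/sandy loam–grit soil (14 h photoperiod, ~29/26 °C) were sprayed postemergence at the first to fourth true leaf stage. Compound A (acid equivalent basis) and ALS-inhibiting sulfonylureas (active ingredient basis) were applied alone and in combination in 1.25% (v/v) crop oil concentrate at 187 L/ha by track sprayer; controls received solvent blank.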

[3] = system: CIRAR (Cirsium arvense, Canada thistle); test: Post-emergence foliar-applied weed control in cereal crops, greenhouse (Example III); assay type: in vivo, Cirsium arvense (L.) Scop.
Procedure, shortened: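 Greenhouse plants at the second or third true leaf stage (14 hour photoperiod, about 18/17 °C) were track-sprayed at 187 L/ha with Compound A SC, a second cereal herbicide, or their combinations, using 1.25% v/v crop oil concentrate. Injury was scored visually at 20-22 days against solvent-blank controls on a 0–100% scale. Expected mixture effects were calculated with Colby's equation.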

COC(=O)c1ccccc1CS(=O)(=O)NC(=O)Nc1nc(OC)cc(OC)n1 [Bensulfuron-methyl, methyl 2-[[[[[(4,6-dimethoxy-2-pyrimidinyl)amino]carbonyl]amino]sulfonyl]methyl]benzoate, reference compound]
Visual Weed Control (%) Obs ([1]; 20 DAA, 70 gai/ha): 30%

COc1c(Cl)ccc(-c2nc(C(=O)O)c(Cl)c(N)c2F)c1F [Compound A Acid, 4-amino-3-chloro-5-fluoro-6-(4-chloro-2-fluoro-3-methoxy-phenyl)pyridine-2-carboxylic acid]
Visual Weed Control (%) Obs ([2]; 20 DAA, 5.3 gae/ha): 10%
Visual Weed Control (%) Obs ([2]; 24 DAA, 17.5 gae/ha): 25%

COc1c(Cl)ccc(-c2nc(C(=O)OCc3ccccc3)c(Cl)c(N)c2F)c1F [Compound A Benzyl Ester]
Visual Weed Control (%) Obs ([1]; 20 DAA, 6 gae/ha): 30%
Visual Weed Control (%) Obs ([1]; 20 DAA, 24 gae/ha): 35%
Visual Weed Control (%) Obs ([1]; 21 DAA, 8 gae/ha): 20%
Visual Weed Control (%) Obs ([1]; 21 DAA, 16 gae/ha): 0%
Visual Weed Control (%) Obs ([2]; 20 DAA, 4.38 gae/ha): 20%
Visual Weed Control (%) Obs ([2]; 20 DAA, 8.75 gae/ha): 15%
Visual Weed Control (%) Obs ([2]; 20 DAA, 17.5 gae/ha): 20%
Visual Weed Control (%) Obs ([2]; 22 DAA, 8 gae/ha): 20%
Visual Weed Control (%) Obs ([2]; 22 DAA, 16 gae/ha): 20%
Visual Weed Control (%) Obs ([2]; 22 DAA, 32 gae/ha): 35%
Visual Weed Control (%) - 21 DAA DIGSA Obs ([2]; 8 gae/ha alone): 25%
Visual Weed Control (%) - 21 DAA DIGSA Obs ([2]; 16 gae/ha alone): 30%
Visual Weed Control (%) - 21 DAA DIGSA Obs ([2]; 32 gae/ha alone): 50%
pest or weed control at 8.75 g/ha ([3]; Cirsium arvense, post-emergence, read-out: Weed Control CIRAR Obs): 40%
Weed Control CIRAR Obs ([3]; Table 53, foliar-applied, after 20-22 days, 8.75 gai/ha alone): 40%
Weed Control CIRAR Obs ([3]; Table 54, foliar-applied, after 20-22 days, 8.75 gai/ha alone): 40%
Weed Control CIRAR Obs ([3]; Table 55, foliar-applied, after 20-22 days, 8.75 gai/ha alone): 40%
Weed Control CIRAR Obs ([3]; Table 56, foliar-applied, after 20-22 days, 8.75 gai/ha alone): 40%
Weed Control CIRAR Obs ([3]; Table 57, foliar-applied, after 20-22 days, 8.75 gai/ha Compound A Benzyl Ester alone): 40%
Weed Control CIRAR Obs ([3]; Table 58 (cereal), foliar-applied, after 20-22 days, 8.75 gai/ha alone): 40%
Weed Control CIRAR Obs ([3]; Table 59 (cereal), foliar-applied, after 20-22 days, 8.75 gai/ha alone): 40%

COC(=O)c1ccccc1S(=O)(=O)NC(=O)Nc1nc(C)nc(OC)n1 [Metsulfuron-methyl, methyl 2-[[[[(4-methoxy-6-methyl-1,3,5-triazin-2-yl)amino]carbonyl]amino]sulfonyl]benzoate, reference compound]
pest or weed control at 1.1 g/ha ([3]; Cirsium arvense, post-emergence, Table 56, foliar-applied, after 20-22 days, 1.1 gai/ha alone, read-out: Weed Control CIRAR Obs): 65%
